We go through four molecules from paper PMC6509195 (mBio, 2019).

Series [1] deals with T1, CsiD (PP_2909) (Pseudomonas putida, UniProt Q88IU0).
T1 construct: gene glaH
T1 sequence (Q88IU0 1-325): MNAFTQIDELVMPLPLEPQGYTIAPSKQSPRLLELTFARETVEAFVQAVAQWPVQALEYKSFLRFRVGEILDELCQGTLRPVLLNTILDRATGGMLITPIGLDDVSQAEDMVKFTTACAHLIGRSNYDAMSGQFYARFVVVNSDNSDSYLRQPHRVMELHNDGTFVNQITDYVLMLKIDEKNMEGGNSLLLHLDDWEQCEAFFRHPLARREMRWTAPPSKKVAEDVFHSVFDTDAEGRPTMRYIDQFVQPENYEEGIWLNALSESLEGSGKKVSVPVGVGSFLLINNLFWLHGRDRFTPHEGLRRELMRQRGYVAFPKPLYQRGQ
Description: LC-TOF detection of L-2HG. The series is classed as biochemical. The conditions noted are these: 2-oxoacid co-substrate in place of 2KG; glutarate, FeSO4, HEPES pH 7, 22°C.

Series [2] has as its target T2, CsiD homolog from E. coli (Escherichia coli, UniProt P76621).
T2 construct: gene glaH
T2 sequence (P76621 1-325): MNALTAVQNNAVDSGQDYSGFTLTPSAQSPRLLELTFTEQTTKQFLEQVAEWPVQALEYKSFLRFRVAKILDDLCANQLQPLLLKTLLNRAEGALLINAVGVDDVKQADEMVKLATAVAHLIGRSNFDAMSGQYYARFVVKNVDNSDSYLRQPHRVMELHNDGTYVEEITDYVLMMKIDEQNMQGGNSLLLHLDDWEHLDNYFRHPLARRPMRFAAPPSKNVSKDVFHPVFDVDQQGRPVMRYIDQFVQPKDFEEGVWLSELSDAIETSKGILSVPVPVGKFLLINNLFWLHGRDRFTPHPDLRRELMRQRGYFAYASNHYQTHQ
Put plainly: LC-TOF detection of L-2HG. The series is classed as biochemical. The conditions noted are these: 2-oxoacid co-substrate in place of 2KG; glutarate, FeSO4, HEPES pH 7, 22°C.

For the next series, the target named is T3, PP_4108 (Pseudomonas putida, UniProt Q88FI7).
T3 sequence (Q88FI7 1-416): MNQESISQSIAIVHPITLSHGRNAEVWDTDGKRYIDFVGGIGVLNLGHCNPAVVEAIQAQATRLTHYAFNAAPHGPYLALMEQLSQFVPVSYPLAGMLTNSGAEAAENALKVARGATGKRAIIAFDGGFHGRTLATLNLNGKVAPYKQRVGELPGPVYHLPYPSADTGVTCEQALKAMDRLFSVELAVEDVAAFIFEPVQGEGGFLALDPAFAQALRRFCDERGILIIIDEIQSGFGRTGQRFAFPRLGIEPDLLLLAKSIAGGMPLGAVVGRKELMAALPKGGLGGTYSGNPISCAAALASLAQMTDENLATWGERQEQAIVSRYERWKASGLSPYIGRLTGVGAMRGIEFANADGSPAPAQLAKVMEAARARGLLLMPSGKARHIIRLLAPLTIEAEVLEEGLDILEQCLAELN
Description: colorimetric glutamate assay of transamination. Type of series: biochemical. The conditions noted are these: 2KG as amino acceptor, PLP, 50 mM HEPES pH 7.5, 30°C, 16 h.

The target in series [3] is T2, CsiD homolog from E. coli. Description: LC-TOF product analysis. The conditions noted are these: 2KG co-substrate, FeSO4, HEPES pH 7, 22°C. The series is classed as biochemical.
The target of series [4] is T1, CsiD (PP_2909). Description: LC-TOF / HPLC product analysis. Type of series: biochemical. The conditions noted are these: 2KG co-substrate, 25 μM FeSO4, ascorbate, DTT, 50 mM HEPES pH 7, 22°C, 3 h.
Substrate in the series “purified protein”: O=C(O)CCCC(=O)C(=O)O
Put plainly: purified protein. The series is classed as biochemical, Pseudomonas putida. The conditions noted are these: 100 mM Tris-HCl pH 7, 10 mM MgCl2, 50 μM FeCl2, Fe(II)-dependent.

`O=C(O)CCCC(=O)C(=O)O` [2-oxoadipate]: the “LC-TOF detection of L-2HG” value was “all three CsiD homologs could utilize both 2OA and 2KG, but not oxaloacetate” on CsiD (PP_2909) [1]; “all three CsiD homologs could utilize both 2OA and 2KG, but not oxaloacetate” in series [2].

As for `N[C@@H](CCCC(=O)O)C(=O)O` [L-2-aminoadipate], the relative activity entry at PP_4108 is recorded as “The enzyme was most active on L-2AA”.

`O=C(O)CCCC(=O)O` [glutarate]: the LC-TOF product analysis entry in series [3] is reported as “found that only glutarate served as a hydroxylation substrate”. Further, the “LC-TOF / HPLC product analysis” value on CsiD (PP_2909) [4] was “purified csiD and confirmed that it hydroxylated glutarate in a 2KG-dependent manner”.

B1: PP_5260 (Pseudomonas putida KT2440) (protein)
chain: MPANDFVSPDSIRAQFSAAMSLMYKQEVPLYGTLLELVSEINQQVMAQQPEVAEALRWTGEIERLDQERHGAIRVGTAEELATIARLFAVMGMQPVGYYDLSSAGVPVHSTAFRAVHEQSLHVSPFRVFTSLLRLELIDNPQLRELAQSILAKRQIFTSRALELIAQCEREGGLDAADAETFVQEALHTFRWHQDATVTAEQYQQLHDQHRLIADVVAFKGPHINHLTPRTLDIDAIQLGMPAKGIPPKAVVEGPPTRRHPILLRQTSFKALQETVAFRDQQGREGSHTARFGEIEQRGAALTPKGRQLYDKLLDATRVALGGAPAEANAERYMALLQANFAEFPDDLAQMREQGLAYFRYFATEKGLAARDQEGRPTTLQGLIDAGHVHFEALVYEDFLPVSAAGIFQSNLGDDAQAEYGSNANREAFEAALGLQVQDELALYAQSERRSLQACAQALNLGSM
In the case of B1, the Km in the series “purified protein” was 0.06 (± 0.03) mM.
